Values quoted from earlier work in publication PMC13603578, “Biopriming with Schizophyllum commune Polysaccharides Modulates Antioxidant and Biochemical Responses in Pisum sativum L. Seedlings” (Antioxidants, 2026).

Design: method as in PMID 26205049
Details: under the tested conditions

Substance: liquiritigenin
- DPPH radical-scavenging inhibition: exceeding 65%
